Experimental data reported in ChEMBL document CHEMBL4507329, “Data for DCP probe BTZO-1” (2021).

Columns and labels:
[1] = target: Serine/threonine-protein kinase DCLK2 (Homo sapiens) (UniProt Q8N568); conditions: Compound concentration 1000.0 nM
[2] = target: Cyclin-dependent kinase 2 (Homo sapiens) (UniProt P24941); conditions: Compound concentration 1000.0 nM
[3] = tested on: Epidermal growth factor receptor (Homo sapiens), P00533 [UNDEFINED MUTATION]; conditions: Compound concentration 1000.0 nM
Epidermal growth factor receptor (Homo sapiens), P00533 [UNDEFINED MUTATION], sequence (P00533 whole entry, looked up, stated change not applied): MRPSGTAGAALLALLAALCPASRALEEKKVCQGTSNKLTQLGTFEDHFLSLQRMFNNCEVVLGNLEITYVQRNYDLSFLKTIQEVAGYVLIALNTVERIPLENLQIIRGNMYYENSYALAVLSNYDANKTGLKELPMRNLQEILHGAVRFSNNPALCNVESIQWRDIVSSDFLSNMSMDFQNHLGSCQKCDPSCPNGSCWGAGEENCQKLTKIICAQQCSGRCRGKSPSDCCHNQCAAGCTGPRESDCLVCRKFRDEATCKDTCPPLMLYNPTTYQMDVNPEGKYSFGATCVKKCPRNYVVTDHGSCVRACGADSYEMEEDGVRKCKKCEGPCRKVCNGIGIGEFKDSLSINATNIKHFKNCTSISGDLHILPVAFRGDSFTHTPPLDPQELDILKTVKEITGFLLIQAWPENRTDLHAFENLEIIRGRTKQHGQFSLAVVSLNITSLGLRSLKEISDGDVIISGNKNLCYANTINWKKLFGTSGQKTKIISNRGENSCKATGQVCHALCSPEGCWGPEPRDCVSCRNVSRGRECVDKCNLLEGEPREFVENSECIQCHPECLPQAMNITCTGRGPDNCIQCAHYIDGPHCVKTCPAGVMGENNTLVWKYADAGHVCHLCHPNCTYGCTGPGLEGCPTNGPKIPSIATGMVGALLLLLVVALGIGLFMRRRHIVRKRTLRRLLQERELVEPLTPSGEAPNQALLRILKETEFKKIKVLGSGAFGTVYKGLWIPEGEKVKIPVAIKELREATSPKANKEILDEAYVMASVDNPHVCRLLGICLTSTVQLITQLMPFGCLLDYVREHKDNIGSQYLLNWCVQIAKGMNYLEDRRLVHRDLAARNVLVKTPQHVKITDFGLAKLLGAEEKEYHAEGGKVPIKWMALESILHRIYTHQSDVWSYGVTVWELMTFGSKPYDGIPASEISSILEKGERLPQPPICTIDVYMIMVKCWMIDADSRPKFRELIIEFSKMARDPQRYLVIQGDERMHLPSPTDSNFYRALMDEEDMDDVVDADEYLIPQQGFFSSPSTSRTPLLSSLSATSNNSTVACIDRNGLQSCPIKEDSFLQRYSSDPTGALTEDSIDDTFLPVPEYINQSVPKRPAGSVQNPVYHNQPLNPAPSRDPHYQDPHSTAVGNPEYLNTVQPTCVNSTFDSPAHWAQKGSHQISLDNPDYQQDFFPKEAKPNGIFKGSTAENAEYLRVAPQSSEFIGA

[4] = target: Dual specificity protein kinase TTK (Homo sapiens) (UniProt P33981); conditions: Compound concentration 1000.0 nM
[5] = target: Serine/threonine-protein kinase 10 (Homo sapiens) (UniProt O94804); conditions: Compound concentration 1000.0 nM
[6] = target: Serine/threonine-protein kinase TAO1 (Homo sapiens) (UniProt Q7L7X3); conditions: Compound concentration 1000.0 nM
[7] = target: Calcium/calmodulin-dependent protein kinase kinase 1 (Homo sapiens) (UniProt Q8N5S9); conditions: Compound concentration 1000.0 nM
[8] = target: Serine/threonine-protein kinase 16 (Homo sapiens) (UniProt O75716); conditions: Compound concentration 1000.0 nM
Serine/threonine-protein kinase 16 (Homo sapiens), sequence (O75716 whole entry): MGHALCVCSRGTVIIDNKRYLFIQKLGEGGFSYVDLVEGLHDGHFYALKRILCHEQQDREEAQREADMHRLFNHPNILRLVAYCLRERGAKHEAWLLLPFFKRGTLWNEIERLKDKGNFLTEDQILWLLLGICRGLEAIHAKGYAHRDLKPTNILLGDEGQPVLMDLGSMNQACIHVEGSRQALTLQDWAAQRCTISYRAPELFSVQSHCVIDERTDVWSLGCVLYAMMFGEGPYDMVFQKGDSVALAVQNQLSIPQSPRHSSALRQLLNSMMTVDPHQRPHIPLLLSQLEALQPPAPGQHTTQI

[9] = target: Tyrosine-protein kinase Lck (Homo sapiens) (UniProt P06239); conditions: Compound concentration 1000.0 nM
[10] = target: Tyrosine-protein kinase BTK (Homo sapiens) (UniProt Q06187); conditions: Compound concentration 1000.0 nM
[11] = tested on: Receptor-type tyrosine-protein kinase FLT3 (Homo sapiens), P36888 [D835Y]; conditions: Compound concentration 1000.0 nM
[12] = target: Histamine H2 receptor (Homo sapiens) (UniProt P25021); conditions: Compound concentration 10.0 uM
[13] = target: Serine/threonine-protein kinase WNK4 (Homo sapiens) (UniProt Q96J92); conditions: Compound concentration 1000.0 nM
[14] = target: Serine/threonine-protein kinase VRK2 (Homo sapiens) (UniProt Q86Y07); conditions: Compound concentration 1000.0 nM
[15] = target: Proto-oncogene tyrosine-protein kinase ROS (Homo sapiens) (UniProt P08922); conditions: Compound concentration 1000.0 nM
[16] = target: Mitogen-activated protein kinase 6 (Homo sapiens) (UniProt Q16659); conditions: Compound concentration 1000.0 nM
[17] = target: Protein kinase C theta type (Homo sapiens) (UniProt Q04759); conditions: Compound concentration 1000.0 nM
[18] = target: Serine/threonine-protein kinase Sgk3 (Homo sapiens) (UniProt Q96BR1); conditions: Compound concentration 1000.0 nM
[19] = target: Serine/threonine-protein kinase TAO3 (Homo sapiens) (UniProt Q9H2K8); conditions: Compound concentration 1000.0 nM
[20] = target: Testis-specific serine/threonine-protein kinase 1 (Homo sapiens) (UniProt Q9BXA7); conditions: Compound concentration 1000.0 nM
[21] = target: Proto-oncogene tyrosine-protein kinase Src (Homo sapiens) (UniProt P12931); conditions: Compound concentration 1000.0 nM
[22] = target: Receptor-type tyrosine-protein kinase FLT3 (Homo sapiens) (UniProt P36888); conditions: Compound concentration 1000.0 nM
[23] = target: Bone morphogenetic protein receptor type-2 (Homo sapiens) (UniProt Q13873); conditions: Compound concentration 1000.0 nM
[24] = target: Protein kinase C epsilon type (Homo sapiens) (UniProt Q02156); conditions: Compound concentration 1000.0 nM
[25] = target: Death-associated protein kinase 2 (Homo sapiens) (UniProt Q9UIK4); conditions: Compound concentration 1000.0 nM
[26] = target: Dual specificity protein kinase CLK2 (Homo sapiens) (UniProt P49760); conditions: Compound concentration 1000.0 nM
[27] = target: Fibroblast growth factor receptor 4 (Homo sapiens) (UniProt P22455); conditions: Compound concentration 1000.0 nM
[28] = tested on: Epidermal growth factor receptor (Homo sapiens), P00533 [UNDEFINED MUTATION]; conditions: Compound concentration 1000.0 nM; remark: listed apart in the source
[29] = target: Tyrosine-protein kinase Mer (Homo sapiens) (UniProt Q12866); conditions: Compound concentration 1000.0 nM
Tyrosine-protein kinase Mer (Homo sapiens), sequence (Q12866 whole entry): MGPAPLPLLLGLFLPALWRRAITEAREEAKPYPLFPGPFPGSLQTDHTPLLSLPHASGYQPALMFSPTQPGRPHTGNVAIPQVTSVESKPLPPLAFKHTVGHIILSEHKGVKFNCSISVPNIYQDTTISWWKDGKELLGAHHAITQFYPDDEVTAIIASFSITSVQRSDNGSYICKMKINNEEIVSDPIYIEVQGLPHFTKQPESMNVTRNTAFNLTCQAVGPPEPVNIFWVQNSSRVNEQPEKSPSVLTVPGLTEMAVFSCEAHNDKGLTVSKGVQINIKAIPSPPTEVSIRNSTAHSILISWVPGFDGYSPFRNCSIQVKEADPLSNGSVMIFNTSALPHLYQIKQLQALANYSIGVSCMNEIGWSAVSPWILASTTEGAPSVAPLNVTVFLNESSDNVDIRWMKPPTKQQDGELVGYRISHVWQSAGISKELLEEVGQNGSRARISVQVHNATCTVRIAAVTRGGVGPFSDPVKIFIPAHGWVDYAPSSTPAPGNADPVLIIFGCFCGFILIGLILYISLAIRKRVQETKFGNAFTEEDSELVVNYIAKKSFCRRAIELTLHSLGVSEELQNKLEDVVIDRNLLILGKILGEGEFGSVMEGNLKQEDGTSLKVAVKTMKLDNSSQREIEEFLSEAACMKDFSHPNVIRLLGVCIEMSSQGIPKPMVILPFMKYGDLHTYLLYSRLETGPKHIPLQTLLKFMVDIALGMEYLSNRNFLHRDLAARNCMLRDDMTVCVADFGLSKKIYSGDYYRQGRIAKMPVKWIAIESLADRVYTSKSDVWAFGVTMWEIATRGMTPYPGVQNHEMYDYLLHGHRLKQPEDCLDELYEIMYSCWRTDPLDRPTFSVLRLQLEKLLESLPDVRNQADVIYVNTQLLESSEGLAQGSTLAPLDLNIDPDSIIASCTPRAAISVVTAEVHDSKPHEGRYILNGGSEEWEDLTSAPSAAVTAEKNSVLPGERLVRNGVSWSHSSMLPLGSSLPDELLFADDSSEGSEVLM

[30] = target: Tyrosine-protein kinase FRK (Homo sapiens) (UniProt P42685); conditions: Compound concentration 1000.0 nM
Tyrosine-protein kinase FRK (Homo sapiens), sequence (P42685 whole entry): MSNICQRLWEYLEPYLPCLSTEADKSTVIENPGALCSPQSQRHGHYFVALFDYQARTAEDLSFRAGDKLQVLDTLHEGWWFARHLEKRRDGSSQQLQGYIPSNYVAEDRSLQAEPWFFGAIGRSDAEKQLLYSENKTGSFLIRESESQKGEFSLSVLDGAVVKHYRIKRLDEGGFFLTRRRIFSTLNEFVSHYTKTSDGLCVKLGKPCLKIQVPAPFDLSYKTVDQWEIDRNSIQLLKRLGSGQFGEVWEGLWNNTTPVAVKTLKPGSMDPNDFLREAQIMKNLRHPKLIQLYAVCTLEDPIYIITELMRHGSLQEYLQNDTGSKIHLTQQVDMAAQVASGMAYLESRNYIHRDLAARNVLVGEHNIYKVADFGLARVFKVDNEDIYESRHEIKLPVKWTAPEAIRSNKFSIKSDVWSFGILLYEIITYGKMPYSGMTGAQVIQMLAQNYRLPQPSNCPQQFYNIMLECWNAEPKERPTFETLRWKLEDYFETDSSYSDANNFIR

[31] = target: Homeodomain-interacting protein kinase 1 (Homo sapiens) (UniProt Q86Z02); conditions: Compound concentration 1000.0 nM
[32] = tested on: Tyrosine-protein kinase ABL1 (Homo sapiens), P00519 [T315I]; conditions: Compound concentration 1000.0 nM
[33] = target: Muscle, skeletal receptor tyrosine-protein kinase (Homo sapiens) (UniProt O15146); conditions: Compound concentration 1000.0 nM
[34] = target: Tyrosine-protein kinase ABL1 (Homo sapiens) (UniProt P00519); conditions: Compound concentration 1000.0 nM
[35] = target: Ribosomal protein S6 kinase alpha-2 (Homo sapiens) (UniProt Q15349); conditions: Compound concentration 1000.0 nM
[36] = target: Hormonally up-regulated neu tumor-associated kinase (Homo sapiens) (UniProt P57058); conditions: Compound concentration 1000.0 nM
Hormonally up-regulated neu tumor-associated kinase (Homo sapiens), sequence (P57058 whole entry): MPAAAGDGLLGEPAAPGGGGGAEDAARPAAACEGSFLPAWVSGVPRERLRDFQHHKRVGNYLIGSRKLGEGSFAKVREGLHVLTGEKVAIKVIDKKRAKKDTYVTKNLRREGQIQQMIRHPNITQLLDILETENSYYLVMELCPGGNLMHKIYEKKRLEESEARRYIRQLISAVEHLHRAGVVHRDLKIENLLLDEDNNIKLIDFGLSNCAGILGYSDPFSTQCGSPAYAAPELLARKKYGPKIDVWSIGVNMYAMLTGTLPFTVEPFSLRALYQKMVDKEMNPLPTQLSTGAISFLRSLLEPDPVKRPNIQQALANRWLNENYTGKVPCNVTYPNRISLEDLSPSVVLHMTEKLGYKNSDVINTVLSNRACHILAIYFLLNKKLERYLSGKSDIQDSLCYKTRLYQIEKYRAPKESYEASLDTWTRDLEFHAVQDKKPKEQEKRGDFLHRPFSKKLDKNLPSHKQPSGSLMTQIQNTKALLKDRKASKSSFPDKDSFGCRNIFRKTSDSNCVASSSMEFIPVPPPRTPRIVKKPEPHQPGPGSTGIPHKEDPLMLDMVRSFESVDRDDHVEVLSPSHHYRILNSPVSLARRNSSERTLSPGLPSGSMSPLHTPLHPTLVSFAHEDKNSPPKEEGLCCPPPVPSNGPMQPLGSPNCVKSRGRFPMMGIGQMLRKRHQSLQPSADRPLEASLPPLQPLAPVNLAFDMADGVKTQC

[37] = target: STE20-like serine/threonine-protein kinase (Homo sapiens) (UniProt Q9H2G2); conditions: Compound concentration 1000.0 nM
STE20-like serine/threonine-protein kinase (Homo sapiens), sequence (Q9H2G2 whole entry, looked up): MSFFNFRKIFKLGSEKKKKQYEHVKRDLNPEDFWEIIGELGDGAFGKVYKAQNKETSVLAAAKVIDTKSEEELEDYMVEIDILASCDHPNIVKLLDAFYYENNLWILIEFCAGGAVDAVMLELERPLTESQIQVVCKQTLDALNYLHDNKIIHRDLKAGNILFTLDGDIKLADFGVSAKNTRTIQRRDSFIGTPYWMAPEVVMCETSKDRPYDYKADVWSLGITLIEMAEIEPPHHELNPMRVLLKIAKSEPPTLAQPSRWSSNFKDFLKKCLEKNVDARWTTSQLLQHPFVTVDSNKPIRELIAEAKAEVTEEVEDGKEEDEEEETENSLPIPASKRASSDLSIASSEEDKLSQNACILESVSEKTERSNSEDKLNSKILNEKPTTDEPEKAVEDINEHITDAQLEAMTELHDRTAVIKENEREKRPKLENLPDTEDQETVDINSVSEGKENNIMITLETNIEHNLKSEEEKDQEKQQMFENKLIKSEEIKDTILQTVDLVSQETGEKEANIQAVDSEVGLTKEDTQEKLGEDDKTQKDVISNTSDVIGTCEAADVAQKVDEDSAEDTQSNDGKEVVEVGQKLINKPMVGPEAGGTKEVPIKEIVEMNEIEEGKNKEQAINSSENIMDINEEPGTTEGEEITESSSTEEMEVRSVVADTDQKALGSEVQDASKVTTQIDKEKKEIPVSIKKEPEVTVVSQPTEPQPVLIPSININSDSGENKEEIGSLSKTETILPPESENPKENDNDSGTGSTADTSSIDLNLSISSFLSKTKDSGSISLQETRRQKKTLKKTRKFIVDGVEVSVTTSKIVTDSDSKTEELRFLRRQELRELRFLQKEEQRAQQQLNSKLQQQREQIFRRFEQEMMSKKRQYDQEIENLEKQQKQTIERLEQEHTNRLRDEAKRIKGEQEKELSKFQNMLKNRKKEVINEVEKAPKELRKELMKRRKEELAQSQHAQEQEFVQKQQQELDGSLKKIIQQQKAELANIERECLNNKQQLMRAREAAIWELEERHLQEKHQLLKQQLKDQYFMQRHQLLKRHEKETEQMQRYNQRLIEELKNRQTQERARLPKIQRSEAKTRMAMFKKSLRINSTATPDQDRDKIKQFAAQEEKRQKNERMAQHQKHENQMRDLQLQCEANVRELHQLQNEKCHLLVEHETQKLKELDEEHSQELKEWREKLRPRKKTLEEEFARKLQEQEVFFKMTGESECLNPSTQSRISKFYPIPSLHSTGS

[38] = target: Ribosomal protein S6 kinase beta-1 (Homo sapiens) (UniProt P23443); conditions: Compound concentration 1000.0 nM
[39] = target: Platelet-derived growth factor receptor beta (Homo sapiens) (UniProt P09619); conditions: Compound concentration 1000.0 nM
[40] = target: Mitogen-activated protein kinase kinase kinase 3 (Homo sapiens) (UniProt Q99759); conditions: Compound concentration 1000.0 nM
[41] = target: Mitogen-activated protein kinase 14 (Homo sapiens) (UniProt Q16539); conditions: Compound concentration 1000.0 nM
[42] = target: Rho-associated protein kinase 2 (Homo sapiens) (UniProt O75116); conditions: Compound concentration 1000.0 nM
[43] = target: Phosphatidylinositol 3-kinase C2 domain-containing subunit gamma (Homo sapiens) (UniProt O75747); conditions: Compound concentration 1000.0 nM
[44] = tested on: Epidermal growth factor receptor (Homo sapiens), P00533 [UNDEFINED MUTATION]; conditions: Compound concentration 1000.0 nM; remark: listed apart in the source
[45] = tested on: Proto-oncogene tyrosine-protein kinase receptor Ret (Homo sapiens), P07949 [M918T]; conditions: Compound concentration 1000.0 nM

O=c1nc(-c2ccccn2)sc2ccccc12 [BTZO-1]
inactive: residual activity [1] 97% | residual activity [2] 96% | residual activity [3] 84% | residual activity [4] 100% | residual activity [5] 99% | residual activity [6] 92% | residual activity [7] 96% | residual activity [8] 83% | residual activity [9] 95% | residual activity [10] 96% | residual activity [11] 100% | inhibition [12] 24.4% | residual activity [13] 100% | residual activity [14] 74% | residual activity [15] 100% | residual activity [16] 73% | residual activity [17] 90% | residual activity [18] 100% | residual activity [19] 73% | residual activity [20] 100% | residual activity [21] 92% | residual activity [22] 98% | residual activity [23] 100% | residual activity [24] 100% | residual activity [25] 86% | residual activity [26] 80% | residual activity [27] 73% | residual activity [28] 100% | residual activity [29] 82% | residual activity [30] 100% | residual activity [31] 61% | residual activity [32] 100% | residual activity [33] 100% | residual activity [34] 89% | residual activity [35] 100% | residual activity [36] 81% | residual activity [37] 85% | residual activity [38] 100% | residual activity [39] 83% | residual activity [40] 77% | residual activity [41] 94% | residual activity [42] 94% | residual activity [43] 100% | residual activity [44] 74% | residual activity [45] 81%

O=C1NC(c2ccccn2)Sc2ccccc21 (stereo not given) [BTZO-4]
inactive: residual activity [1] 92% | residual activity [2] 81% | residual activity [3] 92% | residual activity [4] 91% | residual activity [5] 100% | residual activity [6] 96% | residual activity [7] 88% | residual activity [8] 83% | residual activity [9] 80% | residual activity [10] 74% | residual activity [11] 86% | inhibition [12] 24.8% | residual activity [13] 100% | residual activity [14] 77% | residual activity [15] 95% | residual activity [16] 72% | residual activity [17] 76% | residual activity [18] 100% | residual activity [19] 77% | residual activity [20] 66% | residual activity [21] 85% | residual activity [22] 92% | residual activity [23] 80% | residual activity [24] 96% | residual activity [25] 79% | residual activity [26] 95% | residual activity [27] 89% | residual activity [28] 100% | residual activity [29] 75% | residual activity [30] 100% | residual activity [31] 75% | residual activity [32] 93% | residual activity [33] 90% | residual activity [34] 72% | residual activity [35] 97% | residual activity [36] 80% | residual activity [37] 76% | residual activity [38] 75% | residual activity [39] 83% | residual activity [40] 93% | residual activity [41] 81% | residual activity [42] 67% | residual activity [43] 100% | residual activity [44] 68% | residual activity [45] 64%
